Columns and labels:
[1] = tested on: Salmonella enterica subsp. enterica (S enterica ATCC 10708); experiment: Bactericidal activity of cleaner/disinfecting formulations, DIN EN 1276-2010, dirty conditions; type: cell-based; conditions: BAC 40 ppm in cleaner diluted 1:250; 0.3% bovine albumin, 35° C., 5 min contact time
Experimental: (§1) For biological activity testing, the following microorganisms were used: • Escherichia coli(E. coli DSM 682) • Salmonella enterica subsp. enterica (S enterica ATCC 10708)
(§2) The imidazolium polymer of example 1 (imidazolium polymer 1) and benzalkonium chloride (BAC) were formulated into various dilutable concentrated hard-surface cleaners. The finished formulations were pre-dissolved 1:200 in standardized hard water (DIN EN 1276-2010) and then diluted to 80% by adding 1 ml of the inoculate and 1 ml of bovine albumin solution to 8 ml of the pre-dissolved cleaner, so that in-test a dilution of 1:250 was obtained. The amounts relate to active substance.
(§3) Antimicrobial testing of the above formulations in 1:250 dilution was done according to European Standard (DIN EN 1276-2010) under dirty conditions, i.e. additional soiling of 0.3% bovine albumin at 35° C. and 5 min contact time. Neutralization was done using the Saponin-containing neutralizer as described in DIN EN 1276 (30 g/l Polysorbate 80+30 g/l Saponin+3 g/l Lecithin). Results are documented in the table below as logarithmic reduction (Ig R) in comparison to the number of microorganisms used for the test.

[2] = tested on: Escherichia coli (E. coli DSM 682); experiment: as above; type: cell-based; conditions: 0.3% bovine albumin, 35° C., 5 min contact time
Experimental: as §1, §2, §3
as §2, with “didecyldimethylammonium” for “benzalkonium”, “(DDAC)” for “(BAC)”
as §3, with “80+30 g/I” for “80+30 g/l”, “Saponin+3 g/I” for “Saponin+3 g/l”

Row | Compound | S. enterica logarithmic reduction (lg R) [1] | E. coli logarithmic reduction (lg R) ([2]; BAC 20 ppm in cleaner diluted 1:250) | E. coli logarithmic reduction (lg R) ([2]; BAC 40 ppm in cleaner diluted 1:250) | E. coli logarithmic reduction (lg R) ([2]; DDAC 10 ppm in cleaner diluted 1:250) | E. coli logarithmic reduction (lg R) ([2]; DDAC 20 ppm in cleaner diluted 1:250)
1 | CCCCCCCCCCCC[N+](C)(C)Cc1ccccc1.[Cl-] [BAC, lauryl dimethyl benzyl ammonium chloride] | 0.5 lg R | 0.5 lg R | 2.7 lg R | – | –
2 | CCCCCCCCCC[N+](C)(C)CCCCCCCCCC.[Cl-] [DDAC, didecyldimethylammonium chloride] | – | – | – | 0.2 lg R | 1.2 lg R

— patent US20250176548A1, “POLYMERIC IMIDAZOLIUM COMPOUNDS FOR ENHANCING THE ACTIVITY OF ANTIMICROBIAL AGENTS” (BASF SE, priority 2022, published 2025)
